Measurements: patent publication US20230233430A1, “POLYOL ESTERS FROM BIOBASED FEEDSTOCKS FOR USE AS EMOLLIENT IN PERSONAL CARE APPLICATIONS” (priority 2020, published 2023)

Assay: Decomposition temperature by thermogravimetric analyser (TGA)
Type: physicochemical
Conditions: reactants
Experimental: The decomposition temperature of the reactants and polyol ester of different grades (PE25, PE50 and PE100) were determined using a thermogravimetric analyser (TGA). TGA is a method of thermal analysis by measuring the changes in the mass of a sample over increasing temperatures.

Decomposition temperature [°C]	Amount of sample decomposed within the temperature range [wt. %]	SMILES
150.9 to 193.3		CCCCCCCC(=O)O [Caprylic acid]
247.9 to 283.9	95.24	O=C(O)CCCCCCCCC(=O)O [Sebacic acid]
178.7 to 220.9		OCC(O)CO [Glycerin]
